{"source": "patent US8629145B2", "about": "“Therapeutic agent for spinal canal stenosis” (Nippon Shinyaku Co., Ltd., priority 2008, dated 2014)", "tested_on": "model rats suffering from walking disability due to compression of cauda equina", "experiment": "walking disability model due to compression of cauda equina (treadmill walking distance)", "assay_type": "in vivo, Wistar strain rats", "conditions": "rat, oral twice daily, suspension 0.2 mg/mL in 0.5 w/v % methyl cellulose, until 13th or 20th day after operation; vs control group p<0.01", "protocol": "Wistar strain rats (male; seven weeks age) (Charles Liver Japan) were subjected to a walk training once daily for continuous three or four days using a treadmill (manufactured by Muromachi Kikai). On the last day of the walk training, the animals were grouped and, on the next day, the walking time was measured and then a sham operation or an operation for compressing the cauda equina mentioned below i) was carried out. On the third, seventh, fourteenth and twenty-first days after the operation, walking time was measured. Based on the walking time measured, a walking distance was calculated.\nAfter measuring the walking time on the third day, the group for which the operation for compressing the cauda equina was carried out was further grouped into a control group and a drug-administered group on the basis of their walking distances on the day when the operation was done and on the third day after the operation. […]\nThe treadmill was operated and walking time of each rat was measured using a timer. […]\nAs to the evaluation, the control group was evaluated by a Welch test against the sham operation group (##: p<0.01). The drug-administered group was evaluated by a t-test or a Welch test against the control group (★★: p<0.01).", "data": [{"smiles": "CC(C)N(CCCCOCC(=O)NS(C)(=O)=O)c1cnc(-c2ccccc2)c(-c2ccccc2)n1", "note": "[compound A, 2-{4-[N-(5,6-diphenylpyrazin-2-yl)-N-isopropylamino]butyloxy}-N-(methylsulfonyl)acetamide]", "values": [{"measurement": "disability in walking due to compression of cauda equina (walking distance)", "result": "significantly improved"}]}]}
